From patent US6555330B1, “Oncogene-induced apoptosis in drug-resistant cells” (Cold Spring Harbor Laboratory, priority 1996, dated 2003)

Key:
[1] = system: Interleukin-1β-converting enzyme-like proteases (ILPs); experiment: Fluorescent substrate (DEVD-AFC) assay for ILP activity in 293 cell extracts; assay type: biochemical, human; details: for rate of ILP activation (dose response, free AFC generated per minute per milligram of extract): dialyzed S-100 extracts of 293 cells, various concentrations; for rate of ILP activation (dose response, free AFC generated per minute per milligram of extract) / free AFC (cleaved DEVD-AFC) generated in one minute by one milligram of extract: 60 minutes at 37° C.; for free AFC (cleaved DEVD-AFC) generated in one minute by one milligram of extract: 293 cell extracts, vanadate 5 mM, Granzyme B 2 U/ul added before shift
Description: Interleukin-1β-converting enzyme-like proteases activity was measured by monitoring the cleavage of DEVD-AFC. This fluorogenic substrate DEVD-AFC consists of the peptide sequence (DEVD) which resembles the cleavage site in proteins that are degraded by ILPs, conjugated to amino-trifluoromethyl coumarin (AFC). When the peptide and the AFC molecule are attached the substrate is not fluorescent, when it is free it is fluorescent. […] The activated ILPs cleave the bond between the peptide and the AFC, resulting in increased fluorescence, which is detected using a fluorimeter. The assay is performed in a microtiter plate using the format essentially as described by Thomberry, N. A., Methods in Enzymology, 244:615-631 (1994). […] This period of time ranges from 0 to 90 minutes. During the preincubation period of a modulation assay, compounds that are to be assessed for their ability to activate or inhibit apoptosis are also introduced into the sample. Depending upon the purpose of the experiment the test compound may be present for the entire period of the preincubation or only a portion of the time. In order to measure the level of ILP activation 1 μl of extract is added to 200 μl of assay buffer (50 mM PIPES/KOH pH 7.0, 0.1 mM EDTA, 1 mM DTT, 10% glycerol) containing 20 μM DEVD-AFC (Enzyme Systems products). The release of free AFC was measured with a fluorescence plate reader, Cytofluor (Perspective Biosystems). The amount of fluorescence resulting from samples assayed in the presence and absence of potential modulatory compounds is compared to appropriate control samples and expressed as the number of free AFC molecules generated in one minutes by one milligram of cell extract.
Identifying agents that modulate the apoptotic machinery of 293 cellular extracts Dialyzed S-100 extracts of 293 cells were incubated for 60 minutes at 37° C. with various concentrations of either ATP, EDTA or sodium ortho-vanadate. ILP activity was then measured using the fluorogenic substrate assay. (FIGS. 8A-C).
To determine whether bcl-2 blocks ILP activation or inhibits the enzymatic activity of ILPs, bcl-2 was added to extracts either before or after incubation at 37° C. and monitored ILP activity by a quantitative enzymatic assay. Bc1-2 (40 μg/ml) was added to 293 extract either before incubation at 37° C. or after 15 minutes of the incubation (additions indicated by arrows). ILP activity against DEVD-AFC was measured as described above (FIG. 3).
As described below, the system described above can be used to screen for compounds that effect ILP activation. […] Vanadate (0.1, l and 5 mM) was added to extracts from 293 cells and the extracts then shifted to 37° C. and incubated for 30 minutes. The rate of DEVD-AFC proteolysis was then determined.
Vanadate (5 mM) was added to extracts either before 60 minutes incubation at 37° C. or after 60 minutes incubation. The extracts were then incubated for a further 60 minutes and the rate of DEVD-AFC proteolysis determined.
Extracts from 293 cells were incubated for 60 minutes at 37° C. Where indicated vanadate (5 mM), Granzyme B (2 U/ul ) or DEVD-CMK (10 μM) was added before the extract was shifted to 37° C. After 60 minutes the rate of DEVD-AFC proteolysis was determined. Data is representative of two experiments. In parallel, nuclei (1×10^7/ml) were incubated at 37° C. for 60 minutes with extracts treated with vanadate (5 mM), Granzyme B (2 U/ul) or DEVD-CMK (10 μM) where indicated. Nuclei were also incubated at 4° C. with extract or at 37° C. with Granzyme B but no extract.
Extracts were incubated at 37° C. and vanadate was added at the indicated times (arrows) to a final concentration of 5 mM. The rate of DEVD-AFC proteolysis in untreated extract (closed symbols) or vanadate treated extracts (open symbols) was measured at the indicated times. Data is representative of three experiments.

[2] = system: 293 cells; experiment: Apoptotic nuclear morphology (DAPI) in intact 293 cells; assay type: cell-based, human; details: etoposide 50 μM
Description: (§1) Intact cells or isolated nuclei were fixed with 4% paraformaldehyde, stained with DAPI (1μg/ml) and examined by fluorescence microscopy. The percentage of cells showing apoptotic nuclear morphology was determined. Images were acquired using a Photometrics PXL CCD camera (Photometrics Ltd) controlled by Oncor Image software (Oncor Inc.). Figures were prepared using Adobe Photoshop software. Jurkat cells (1×10^5/ml) (FIG. 1A) or 293 cells (1×10^5/ml) (FIG. 1B) were incubated with or without etoposide (50 μM). Cells were fixed at the indicated times and stained with DAPI. The percentage of cells with apoptotic nuclear morphology was determined. Samples were also taken to assess ILP activation.

[3] = system: ICE-like proteases (ILPs) in 293 cells; experiment: Affinity labeling of active ILPs in 293 cells; assay type: cell-based, human; details: 293 cells treated with etoposide
Description: (§2) Cells (2×10^6) were centrifuged (200 g, 5 minutes) and resuspended in […] MDB containing 10 μM biotinylated YVAD.AMK (plus protease inhibitors and […] cytochalasin B) and lysed by freeze/thawing for three cycles. The lysate was centrifuged (16,000 g, 20 minutes, 4° C.) and the supernatant incubated at 37° C. for 4 minutes to label active ILPs. The protein concentration was determined (Bradford assay), an equal volume of 2×SDS sample buffer added and the sample boiled for 5 minutes.
(§3) Extracts were mixed with an equal volume of MDB containing 20 μM biotinylated YVAD.AMK and incubated at 37° C. for 4 minutes to label active ILPs. Labeling was stopped by adding an equal volume of 2×SDS sample buffer and samples were subjected to 15% SDS-PAGE. Proteins were transferred to a PVDF Immobilon P^SQ membrane (Millipore Corp.) and the membrane washed (methanol, 5 minutes) and dried (80° C., 15 minutes). The blot was incubated with avidin (1 μg/ml) followed by Biotin-horse radish peroxidase (0.05 μg/ml), and labeled proteins detected by ECL (Amersham Inc.).
(§4) To avoid relying solely on the morphological manifestations of apoptosis, whether activation of ILPs, a biochemical hallmark of apoptosis, occurred in 293 cells treated with etoposide was also determined. Jurkat cells (2×10^6) or 293 cells (2×10^6) were incubated with biotin-YVAD-AMK, an affinity probe that labels active ILPs.

[4] = system: Jurkat cells; experiment: Apoptotic nuclear morphology (DAPI) in intact Jurkat cells; assay type: cell-based; details: etoposide 50 μM
Description: as §1

[5] = system: ICE-like proteases (ILPs) in Jurkat cells; experiment: Affinity labeling of active ILPs in Jurkat cells; assay type: cell-based; details: Jurkat cells treated with etoposide
Description: as §2, §3, §4

[6] = system: apoptotic machinery of 293 cell extracts; experiment: In vitro apoptosis of isolated HeLa nuclei in 293 cell extracts; parameters: species or system human
Description: Extracts were prepared essentially as described (Lazebnik, Y. A., et al., J. Cell. Biol., 123:7-22 (1993)). 293 cells (5-7×10^5 cells/ml)were washed and gently resuspended in 10× pellet volumes of extract preparation buffer (50 mM PIPES pH 7.0, 50 mM KCl, 5 mM EGTA, 2mM MgCl2, 1 mM DTT) plus 0.1 mM PMSF, 10 μg/ml cytochalasin B and 2 μg/ml each of chymostatin, pepstatin, leupeptin and antipain. Cells were immediately centrifuged (200 g, 5 minutes) and lysed by three cycles of freeze/thawing with liquid nitrogen. The lysate was centrifuged at 100,000 g for two hours, giving a cell extract. […]
Intact cells or isolated nuclei were fixed with 4% paraformaldehyde, stained with DAPI (1μg/ml) and examined by fluorescence microscopy. The percentage of cells showing apoptotic nuclear morphology was determined. […]
293 cell extracts (10 μl) were incubated with isolated HeLa nuclei (1×10^5) for 60 minutes at 37° C. either alone or with biotin-YVAD-AMK (100 μM), an inhibitor of ILPs. After incubation aliquots of the reaction were fixed, stained with DAPI and examined by fluorescence microscopy.
Extracts from E1A/E1B transformed MEFs or 293 cells (10 μl) were incubated with bcl-2 (40 μg/ml) for 10 minutes at 37° C. prior to further incubation with HeLa nuclei (1×10^5) for 60 minutes. Nuclei were fixed, stained with DAPI and examined by fluorescence microscopy. […]

[7] = system: ICE-like proteases (ILPs), cpp32; experiment: Affinity labeling of ILPs and cpp32 immunoblotting in 293 cell extracts; assay type: biochemical, human; details: Granzyme B added to 293 extracts treated with vanadate
Description: as §3
Affinity blots were re-probed to detect cpp32. These membranes were soaked in methanol for 5 minutes to inactivate horseradish peroxidase, dried and re-probed with a monoclonal antibody to cpp32 (Transduction Laboratories) followed by incubation with a secondary antibody conjugated to horseradish peroxidase. The antigen-antibody complex was detected by ECL (Amersham Inc).
Prevention of apoptosis was achieved only if extracts were pre-incubated with bcl-2 before addition of nuclei. […] The same extracts were incubated alone, with buffer or with bcl-2 (40 μg/ml) for 70 minutes at 37° C. and active ILPs labeled with biotin YVAD.AMK (10 μM). Samples were subjected to 15% SDS-PAGE, transferred to a PVDF membrane and labeled ILPs visualized by ECL.

Nc1ncnc2c1ncn2[C@@H]1O[C@H](COP(=O)(O)OP(=O)(O)OP(=O)(O)O)[C@@H](O)[C@H]1O [ATP]
rate of ILP activation (dose response, free AFC generated per minute per milligram of extract) [1]: increases the rate of ILP activation

O=C(O)CN(CCN(CC(=O)O)CC(=O)O)CC(=O)O [EDTA]
rate of ILP activation (dose response, free AFC generated per minute per milligram of extract) [1]: decreases the rate of ILP activation

COc1cc([C@@H]2c3cc4c(cc3[C@@H](O[C@@H]3O[C@@H]5CO[C@@H](C)O[C@H]5[C@H](O)[C@H]3O)[C@H]3COC(=O)[C@H]23)OCO4)cc(OC)c1O [etoposide]
induction of apoptotic morphology [2]: no morphological signs of apoptosis
active ILPs detected by biotin-YVAD-AMK affinity labeling [3]: No active ILPs were detected
induction of apoptotic morphology [4]: sufficient to kill Jurkat cells
active ILPs detected by biotin-YVAD-AMK affinity labeling [5]: multiple active ILPs were detected

[Na+].[Na+].[Na+].[O]=[V]([O-])([O-])[O-] [vanadate, sodium ortho vanadate]
free AFC (cleaved DEVD-AFC) generated in one minute by one milligram of extract [1]: 1.4 pmol/min
rate of ILP activation (dose response, free AFC generated per minute per milligram of extract) [1]: decreases the rate of ILP activation
ILP activity (rate of DEVD-AFC proteolysis) ([1]; vanadate 5 mM added after 60 minutes incubation at 37° C. (ILPs already active), further 60 minutes): had no effect on ILP activity
process of ILP activation (rate of DEVD-AFC proteolysis) ([1]; vanadate 5 mM added at different times after shift of 293 extract to 37° C.): arrested the process of ILP activation irrespective of when it was added
inhibition of ILP activation ([1]; vanadate 5 mM added before shift to 37° C., all extracts): complete inhibition
rate of DEVD-AFC proteolysis ([1]; vanadate 0.1, 1 and 5 mM added before shifting 293 extract to 37° C., 30 minutes): inhibited cleavage of DEVD-AFC

Granzyme B: a serine protease which activates ILPs directly
effect on vanadate inhibition of in vitro apoptosis (nuclei) ([6]; Granzyme B 2 U/ul added to 293 extracts treated with vanadate 5 mM, nuclei 60 minutes at 37° C.): completely overcame vanadate inhibition
ILP activation and cpp32 processing (affinity labeling, immuno-blotting) [7]: resulted in ILP activation and cpp32 processing
free AFC (cleaved DEVD-AFC) generated in one minute by one milligram of extract [1]: 0 pmol/min
effect on vanadate inhibition of ILP activity ([1]; Granzyme B 2 U/ul added to 293 extracts treated with vanadate 5 mM): completely overcame vanadate inhibition

biotin-YVAD-acyloxymethylketone [biotin YVAD-amk]
nuclear morphological changes of apoptosis in HeLa nuclei ([6]; 293 cell extract, inhibitor 100 μM, 60 minutes at 37° C.): prevented the nuclear morphological changes of apoptosis
